Data on one molecule can be found in patent US7943629B2, “Sulphimides as protein kinase inhibitors” (Bayer Schering Pharma AG, priority 2006, dated 2011).

The target in one experiment is T1, CDK2/CycE (Homo sapiens, UniProt P24941).
T1 construct: GST; purchased ProQinase GmbH, Freiburg; host or cells: baculovirus-infected insect cells (Sf9)
Kind of experiment: CDK2/CycE kinase assay. It is filed as biochemical. The following applies: 0.5 μM ATP, histone IIIS, 22° C., 10 min.

The subject of a further experiment is MCF7 breast tumour cells. Kind of experiment: MCF7 proliferation assay. It is filed as cell-based, human. To be noted: Homo sapiens, MCF7, 96 h; 4 days incubation, crystal violet staining.
For the next experiment, the target named is T2, Aurora-C (Homo sapiens, UniProt Q9UQB9).
T2 construct: made in house; host or cells: transiently transfected HEK293 cells
T2 sequence (Q9UQB9 1-309): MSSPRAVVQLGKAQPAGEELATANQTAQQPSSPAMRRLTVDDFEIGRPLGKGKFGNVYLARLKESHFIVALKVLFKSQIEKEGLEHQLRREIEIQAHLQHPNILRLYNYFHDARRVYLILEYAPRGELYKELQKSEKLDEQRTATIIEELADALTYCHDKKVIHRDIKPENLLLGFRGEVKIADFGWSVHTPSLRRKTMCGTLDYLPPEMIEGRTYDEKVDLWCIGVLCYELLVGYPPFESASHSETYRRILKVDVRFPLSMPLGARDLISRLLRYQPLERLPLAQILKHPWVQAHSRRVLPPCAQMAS
Kind of experiment: Aurora-C kinase assay. The following applies: 3 μM ATP, 22° C., 90 min. In kind it is biochemical.

Another experiment concerns the target T3, CDK1/CycB (Homo sapiens, UniProt P06493).
T3 construct: GST; purchased ProQinase GmbH, Freiburg; host or cells: baculovirus-infected insect cells (Sf9)
Kind of experiment: CDK1/CycB kinase assay. In kind it is biochemical. The following applies: 0.5 μM ATP, histone IIIS, 22° C., 10 min.

Another experiment addresses T4, KDR (VEGFR2) (Homo sapiens, UniProt P35968).
T4 construct: made in house; host or cells: E. coli
Kind of experiment: KDR kinase assay. It is filed as biochemical. The following applies: 10 μM ATP, 22° C., 45 min, HTRF.

T3 sequence (P06493 whole entry): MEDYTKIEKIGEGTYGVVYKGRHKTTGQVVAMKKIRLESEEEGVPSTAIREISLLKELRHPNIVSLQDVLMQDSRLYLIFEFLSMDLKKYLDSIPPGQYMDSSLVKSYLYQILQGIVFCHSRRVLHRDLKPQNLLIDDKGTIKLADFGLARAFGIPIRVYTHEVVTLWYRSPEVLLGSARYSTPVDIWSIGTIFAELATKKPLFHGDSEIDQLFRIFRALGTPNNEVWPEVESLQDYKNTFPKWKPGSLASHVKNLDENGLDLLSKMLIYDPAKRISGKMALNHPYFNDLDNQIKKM
T3 sequence (P14635 whole entry partner): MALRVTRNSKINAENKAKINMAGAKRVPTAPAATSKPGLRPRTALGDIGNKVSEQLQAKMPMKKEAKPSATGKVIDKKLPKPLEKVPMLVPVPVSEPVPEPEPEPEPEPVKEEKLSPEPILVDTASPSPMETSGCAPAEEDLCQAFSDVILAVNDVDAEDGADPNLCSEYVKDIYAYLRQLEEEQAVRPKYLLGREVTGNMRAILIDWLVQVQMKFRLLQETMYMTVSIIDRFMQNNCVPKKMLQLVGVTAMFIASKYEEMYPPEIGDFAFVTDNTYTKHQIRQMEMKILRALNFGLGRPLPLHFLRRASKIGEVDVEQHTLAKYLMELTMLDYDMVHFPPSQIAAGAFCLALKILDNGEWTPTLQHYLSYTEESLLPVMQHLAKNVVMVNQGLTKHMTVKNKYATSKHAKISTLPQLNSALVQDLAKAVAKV
T4 sequence (P35968 20-1356, species assumed): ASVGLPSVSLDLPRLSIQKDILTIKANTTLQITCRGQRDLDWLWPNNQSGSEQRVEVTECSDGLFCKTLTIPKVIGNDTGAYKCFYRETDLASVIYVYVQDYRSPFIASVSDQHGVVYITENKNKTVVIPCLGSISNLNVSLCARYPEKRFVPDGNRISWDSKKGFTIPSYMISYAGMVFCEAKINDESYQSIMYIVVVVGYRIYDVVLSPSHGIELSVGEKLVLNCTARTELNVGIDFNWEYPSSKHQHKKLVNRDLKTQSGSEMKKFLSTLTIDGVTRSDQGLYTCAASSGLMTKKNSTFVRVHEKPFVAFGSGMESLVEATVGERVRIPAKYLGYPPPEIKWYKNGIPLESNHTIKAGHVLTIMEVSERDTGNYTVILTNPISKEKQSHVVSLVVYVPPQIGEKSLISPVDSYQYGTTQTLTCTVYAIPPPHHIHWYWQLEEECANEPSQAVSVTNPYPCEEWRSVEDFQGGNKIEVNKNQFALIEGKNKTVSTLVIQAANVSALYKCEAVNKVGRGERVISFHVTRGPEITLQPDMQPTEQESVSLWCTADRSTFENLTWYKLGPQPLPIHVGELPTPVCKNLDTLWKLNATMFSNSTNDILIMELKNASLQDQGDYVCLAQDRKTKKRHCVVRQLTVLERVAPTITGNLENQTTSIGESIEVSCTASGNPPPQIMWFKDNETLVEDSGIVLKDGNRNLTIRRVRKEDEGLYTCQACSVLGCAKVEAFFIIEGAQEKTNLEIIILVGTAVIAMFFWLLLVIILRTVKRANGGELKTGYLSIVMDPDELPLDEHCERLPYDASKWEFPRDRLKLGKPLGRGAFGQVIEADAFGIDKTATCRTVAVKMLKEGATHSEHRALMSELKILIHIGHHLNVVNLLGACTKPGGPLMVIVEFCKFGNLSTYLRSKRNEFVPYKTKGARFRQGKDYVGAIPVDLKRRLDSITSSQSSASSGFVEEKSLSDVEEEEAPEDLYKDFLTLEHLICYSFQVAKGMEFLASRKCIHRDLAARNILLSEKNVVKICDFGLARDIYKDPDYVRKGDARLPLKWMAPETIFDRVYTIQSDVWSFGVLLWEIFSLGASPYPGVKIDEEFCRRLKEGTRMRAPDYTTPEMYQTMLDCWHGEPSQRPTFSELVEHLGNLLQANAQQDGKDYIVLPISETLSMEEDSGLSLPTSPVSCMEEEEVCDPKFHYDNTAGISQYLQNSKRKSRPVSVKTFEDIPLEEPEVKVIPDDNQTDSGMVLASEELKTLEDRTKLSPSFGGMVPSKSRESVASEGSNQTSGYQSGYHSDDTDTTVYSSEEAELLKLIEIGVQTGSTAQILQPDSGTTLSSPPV

Consider `Cc1ccc(S(=O)(=O)N=S(C)c2ccc(Nc3ncc(Br)c(NC(C)C)n3)cc2)cc1` (racemic) [Example 1, (RS)—S-(4-{[5-Bromo-4-(isopropylamino)pyrimidin-2-yl]amino}phenyl)-S-methyl-N-(tolylsulphonyl)sulphimide], for which the IC50 (in general, the concentration needed to halve the response being measured) against CDK2/CycE was 0.9 µM; in the experiment with MCF7 breast tumour cells, 2.2 µM; against Aurora-C it was 0.24 µM; against CDK1/CycB it was over 1 µM; against KDR (VEGFR2), 0.037 µM.
